The conditions of series [1]: I = 0.15 M NaCl, T = 25 °C; cited from earlier work.
Series [2] can be described thus: pH‐potentiometric determination of ligand protonation constants. As to conditions: I = 1.00 M NaCl, T = 25 °C. Type of series: physicochemical. Here is the method:
The equilibrium study of the PC2AM^nBu ligand has been started by determining the protonation constants in 0.15 M and 1.00 M NaCl ionic strength. (As the stability of the Sc(III) complex was determined in 1.00 M ionic strength, we had to perform the pH‐potentiometric titration of ligands using 1.00 M ionic strengths also.) The results of pH‐potentiometric measurement are shown in Table 1, where the corresponding data for 3,9‐PC2A,^[ [42] ^] PCTA ^[ [46] ^] and PC2AM‐NI ligands determined under identical conditions are also presented. Knowledge of the protonation constants defined by Eqn. 1 and 2 are essential for the calculation of the stability constants of the Sc(III) complexes:
(1) PC2AM^nBu^2−+nH^+⇌Hn(PC2AM^nBu)^−2+n (2) βn=HnPC2AM^nBu^−2+n/PC2AM^nBu^2−H^+^n
The protonation constants of the ligands, as well as the concentrations of the ligand stock solutions, were determined by pH‐potentiometric method using a Metrohm 785 DMP Titrino automatic titrator using a Metrohm 6.00234.100 combined glass electrode. The titrations were carried out in the pH range 1.75–11.80 and the pH electrode was calibrated by a two‐point calibration routine with the use of 0.05 M KH‐phthalate (pH = 4.005) and 0.01 M borax (pH = 9.177 buffers. The samples were stirred at 25 °C (±0.1 °C) and N2 gas bubbled into the system to ensure inert conditions and to eliminate the effect of the presence of CO2. For the calculation of [H^+] from the measured pH values, the method proposed by Irving et al. was applied.^[ [61] ^] For this, a 0.01 M HCl solution was titrated with the standardized NaOH solution in the presence of 0.15 M NaCl ionic strength at 25 °C. The differences between the measured (pHread) and calculated pH (‐log[H^+]) values were used to obtain the equilibrium H^+ concentration from the pHmeas values during the titrations. By fitting the resulting titration curves (pH – V (NaOH) data pairs) with the PSEQUAD program, the protonation constants of the ligands were determined.^[ [47] ^] The titration of the [Sc(PC2AM^nBu)]^+ with NaOH was performed with the same method by applying very similar conditions.

A short description of series [3]: Fluoride binding of [Sc(PC2AM^nBu)]^+ (ternary complex stability), 19F NMR titration. The conditions noted are these: stability constant of the ternary fluoride complex, 19F NMR, pH = 5.2, I = 0.15 M NaCl, 25 °C. Type of series: physicochemical. An excerpt: Sc(III) is a typical “hard” cation, forming very stable complexes with fluoride anion.^[ [51], [52] ^] […] The formation of the ternary [Sc(PC2AM^nBu)(F)] complex can be followed by […], as two sets of signals (Δδ ∼ 20 Hz) indicate a slow exchange regime on the […] time scale (Figure S16). Measuring the intensities of the free and bound fluoride signals, the stability constant (Eqn. 6) of the [Sc(PC2AM^nBu)(F)] complex (Eqn. 5) can be calculated (Table S1).
(5) [Sc(PC2AM^nBu)]^++F^−⇌[Sc(PC2AM^nBu)(F)] (6) KScLF=ScPC2AM^nBuF/[ScPC2AM^nBu^+]F^−
Table S1. Summary of data used for the calculation of the stability constant, log K[Sc(PC2AM^nBu)(F)] by titration of 0.005M [Sc(PC2AM^nBu)]^+ parent complex with different amounts of F^- (0.005 - 0.01 M concentration range) followed by 376.4 MHz ^19F NMR (I = 0.15 M NaCl, c Sc(PC2AM^nBu) = 5 mM, pH=5.20, T= 298 K).

Series [4] can be described thus: Time course of Sc(III) complex formation, 45Sc NMR. As to conditions: ‐log[H^+] = 1.28, 25 °C. Format: physicochemical. Here is the method:
The time course of complex formation of PC2AM^nBu and PCTA ligands with Sc(III) ion was investigated by ^45Sc‐NMR under acidic conditions (cSc = cligand = 10 mM and 9.5 mM, respectively, ‐log[H^+] = 1.28). The decrease of the narrow signal of the free Sc(III) ion was monitored as a function of time. […] The kinetic measurements of formation could be seen in Figures S18 and S19. The complexation for the [Sc(PCTA)] chelate at pH = 1.28 and 25 °C took about 300 minutes to reach the equilibrium, whereas for the [Sc(PC2AM^nBu)]^+ complex it took a bit longer time under these conditions. (In order to confirm that the samples reached the equilibrium, we have repeated the ^45Sc NMR study for both samples after a few days when the signal of the free Sc(III) was absent, and only the signals of the complexes were detected.) The detailed study of formation kinetics was not our aim in this project. One can expect that the reaction follows the well‐known mechanisms of M(III) ‐ macrocyclic APC systems ^[ [54] ^]: formation of a protonated intermediate in fast pre‐equilibrium followed by a slow, base‐catalyzed deprotonation/structural rearrangement as a rate‐determining step. The intermediate is named also as “out‐of‐cage complex.”^[ [55] ^] Our experimental curves are likely in accordance with this mechanism. Fitting the measured data for the free Sc(III) signals by a monoexponential function gives the rate constant k obs = (1.04 ± 0 .05) x 10^−4 s^−1 for the [Sc(PC2AM^nBu)]^+ and k obs = (2.51 ± 0.12) x 10^−4 s^−1 for the [Sc(PCTA)] complex. […] The relatively fast complex formation at the given acidic condition is very encouraging for the Sc(III) labeling experiments.
^45Sc NMR measurements (97 MHz) were performed on a Bruker DRX 400 (9.4 T) spectrometer equipped with a Bruker VT‐1000 thermocontroller and a BB inverse z‐gradient probe (5 mm). The kinetic experiments were performed at 25 °C in aqueous solution, using D2O (10% v/v) as a lock solvent. Typical parameters for 45Sc NMR measurements were used: TD = 32k, p1 = 15.6 µs (90°), d 1 = 0.1 s. The formation reactions of the [Sc(PC2AM^nBu)]^+ and [Sc(PCTA)] complexes were monitored by ^45Sc NMR spectroscopy in two sample types: one containing 10.0 mM PC2AM^nBu and ScCl3 / 9.5 mM […] and ScCl3. In both cases, the total acid concentration corresponded to a pH of 1.28. Obtained monoexponential curves (signal area of free Sc(III) vs. time) were fitted using Scientist software ^[ [62] ^] to determine the formation rate.

Molecules are shown by their SMILES. Read-outs that look alike come from different tables or passages of the source.

For `O=C(O)CN1CCN(CC(=O)O)Cc2cccc(n2)CN(CC(=O)O)CC1` [PCTA, reference compound], in series [1], the “log K 1 ^H” value is 9.97, the “log K 2 ^H” value was 6.73, the “log K 3 ^H” value was 3.22 and the “log K 4 ^H” value is 1.40. For the same compound, the “log β 2 ^H” value in series [1] is 16.70. Further, in series [2], the “log K 1 ^H” value was 9.22(6), the “log K 2 ^H” value is recorded as 7.30(8), the “log K 3 ^H” value was 4.09 (9) and the “log K 4 ^H” value was 1.42(8). Further, in series [2], the “log β 2 ^H” value is listed as 16.52.

`CCCCNC(=O)CN1CCN(CC(=O)[O-])Cc2cccc(n2)CN(CC(=O)[O-])CC1.[Sc+3]` [[Sc(PC2AM^nBu)]^+]: the “log K ScLF” value in series [3] is 2.5(2). Further, the “half‐life of the complex formation reaction (t 1/2 = ln2 / k obs)” value in series [4] was 1.83 h.

(Values after article PMC12731536, “Sc(III) Complexes of Pyclen Derivative Ligands as Probes for Hypoxia: Synthesis, Chemical Characterization, ^44Sc‐Radiolabeling, and Preclinical Assessment” (Chemistry (Weinheim an Der Bergstrasse, Germany), 2025).)
